Test results published in ChEMBL document CHEMBL6083210, “Exploring apoptotic induction of malabaricone A in triple-negative breast cancer cells: an acylphenol phyto-entity isolated from the fruit rind of Myristica malabarica Lam” (RSC Med Chem, 2024).
Activity calls are given as the source filed them. No cut-off for these calls is given here.

What was measured:
MDA-MB-231 [1] = experiment: Upregulation of caspase 3 protein level in human MDA-MB-231 cells at 8 uM measured after 24 hrs; type: functional, cell-based
MDA-MB-231 [2] = experiment: Induction of morphological changes in human MDA-MB-231 cells assessed as appearance of spherical shaped cell at 6 to 10 uM measured 24 hrs by EtBr-AO Live dead Assay; type: functional, cell-based; details: dose 6-10 µM
MDA-MB-231 [3] = experiment: Induction of cell cycle arrest in human MDA-MB-231 cells assessed as accumulation of cells at Sub G0 phase at 8 uM incubated for 24 hrs by PI staining based flow cytometry analysis (reference value: 5.3%); type: functional
MDA-MB-231 [4] = experiment: Induction of apoptosis in human MDA-MB-231 cells assessed as necrotic cells at 6 uM incubated for 24 hrs by FITC annexin V staining based analysis (reference value: 0.8%); type: functional
MDA-MB-231 [5] = experiment: Induction of apoptosis in human MDA-MB-231 cells assessed as viable cells at 6 uM incubated for 24 hrs by FITC annexin V staining based analysis (reference value: 90.5%); type: functional; details: read-out: Activity
MDA-MB-231 [6] = experiment: Induction of cell cycle arrest in human MDA-MB-231 cells assessed as accumulation of cells at S phase at 8 uM incubated for 24 hrs by PI staining based flow cytometry analysis (reference value: 12.0%); type: functional
MDA-MB-231 [7] = experiment: Induction of morphological changes in human MDA-MB-231 cells assessed as leakage of intracellular components at 6 to 10 uM measured 24 hrs by EtBr-AO Live dead Assay; type: functional, cell-based; details: dose 6-10 µM
MDA-MB-231 [8] = experiment: Induction of cell cycle arrest in human MDA-MB-231 cells assessed as accumulation of cells at G1 phase at 6 uM incubated for 24 hrs by PI staining based flow cytometry analysis (reference value: 74.2%); type: functional
MDA-MB-231 [9] = experiment: Antiproliferative activity against human MDA-MB-231 cells assessed as reduction in cell viability measured after 12 to 48 hrs by MTT assay; type: functional, cell-based; details: dose 1-50 µM, time 12-48 hrs
MDA-MB-231 [10] = experiment: Induction of cell cycle arrest in human MDA-MB-231 cells assessed as accumulation of cells at S phase at 6 uM incubated for 24 hrs by PI staining based flow cytometry analysis (reference value: 12.0%); type: functional
MCF-10A = experiment: Antiproliferative activity against human MCF-10A cells assessed as reduction in cell viability incubated for 24 hrs by MTT assay; type: functional, cell-based
MDA-MB-231 [11] = experiment: Induction of apoptosis in human MDA-MB-231 cells assessed as fold increase in caspase 8 level at 8 uM incubated for 24 hrs by fluorometric assay; type: functional
MDA-MB-231 [12] = experiment: Induction of apoptosis in human MDA-MB-231 cells assessed as late apoptotic cells at 10 uM incubated for 24 hrs by FITC annexin V staining based analysis (reference value: 7.3%); type: functional
MDA-MB-231 [13] = experiment: Upregulation of Bax protein level in human MDA-MB-231 cells at 8 uM measured after 24 hrs; type: functional, cell-based
MDA-MB-231 [14] = experiment: Downregulation of XIAP protein level in human MDA-MB-231 cells at 8 uM measured after 24 hrs; type: functional, cell-based
MDA-MB-231 [15] = experiment: Upregulation of TNF-R1 protein level in human MDA-MB-231 cells at 8 uM measured after 24 hrs; type: functional, cell-based
MDA-MB-231 [16] = experiment: Induction of apoptosis in human MDA-MB-231 cells assessed as fold increase in caspase 3 level at 8 uM by fluorometric assay; type: functional
MDA-MB-231 [17] = experiment: Induction of cell cycle arrest in human MDA-MB-231 cells assessed as accumulation of cells at G2 phase at 6 uM incubated for 24 hrs by PI staining based flow cytometry analysis (reference value: 7.9%); type: functional
MDA-MB-231 [18] = experiment: Induction of morphological changes in human MDA-MB-231 cells assessed as membrane blebbing at 6 to 10 uM measured 24 hrs by EtBr-AO Live dead Assay; type: functional, cell-based; details: dose 6-10 µM
MDA-MB-231 [19] = experiment: Upregulation of caspase 8 protein level in human MDA-MB-231 cells at 8 uM measured after 24 hrs; type: functional, cell-based
MDA-MB-231 [20] = experiment: Induction of apoptosis in human MDA-MB-231 cells assessed as increase in green fluorescence at 6 to 10 uM by acridine orange and ethidium bromide dual staining based analysis; type: functional, cell-based; details: dose 6-10 µM, time 12-48 hrs
MDA-MB-231 [21] = experiment: Induction of cell cycle arrest in human MDA-MB-231 cells assessed as accumulation of cells at G1 phase at 8 uM incubated for 24 hrs by PI staining based flow cytometry analysis (reference value: 74.2%); type: functional
MDA-MB-231 [22] = experiment: Upregulation of FasL protein level in human MDA-MB-231 cells at 8 uM measured after 24 hrs; type: functional, cell-based
MDA-MB-231 [23] = experiment: Upregulation of TNF-alpha protein level in human MDA-MB-231 cells at 8 uM measured after 24 hrs; type: functional, cell-based
MDA-MB-231 [24] = experiment: Antiproliferative activity against human MDA-MB-231 cells assessed as reduction in cell viability incubated for 24 hrs by MTT assay; type: functional, cell-based; details: MDA-MB-231, 24 h
MDA-MB-231 [25] = experiment: Induction of apoptosis in human MDA-MB-231 cells assessed as early apoptotic cells at 6 uM incubated for 24 hrs by FITC annexin V staining based analysis (reference value: 1.4%); type: functional
MDA-MB-231 [26] = experiment: Downregulation of cyclin B1 level in human MDA-MB-231 cells at 6 to 10 uM by Western blot analysis; type: functional, cell-based; details: dose 6-10 µM
MDA-MB-231 [27] = experiment: Induction of DNA fragmentation in human MDA-MB-231 cells assessed as appearance of ladder-like pattern at 6 to 10 uM; type: functional, cell-based; details: dose 6-10 µM

SMILES: O=C(CCCCCCCCc1ccccc1)c1c(O)cccc1O [MALABARICONE A]
- Activity (MDA-MB-231 [1]): Active
- Activity (MDA-MB-231 [2]): Active
- Activity (MDA-MB-231 [3]): 59.7%
- Activity (MDA-MB-231 [4]): 3.85%
- viability at 6 µM (MDA-MB-231 [5]): 68.5%
- Activity (MDA-MB-231 [6]): 9.1%
- Activity (MDA-MB-231 [7]): Active
- Activity (MDA-MB-231 [8]): 36.8%
- Activity (MDA-MB-231 [9]): Dose-dependent-effect
- Activity (MDA-MB-231 [10]): 9.7%
- IC50 (MCF-10A): 68.9 µM
- fold change (FC) (MDA-MB-231 [11]): 2.4
- Activity (MDA-MB-231 [12]): 50.65%
- Activity (MDA-MB-231 [13]): Active
- Activity (MDA-MB-231 [14]): Active
- Activity (MDA-MB-231 [15]): Active
- fold change (FC) (MDA-MB-231 [16]): 8.9
- Activity (MDA-MB-231 [17]): 3.9%
- Activity (MDA-MB-231 [18]): Active
- Activity (MDA-MB-231 [19]): Active
- Activity (MDA-MB-231 [20]): Time-dependent-effect
- Activity (MDA-MB-231 [21]): 27.5%
- Activity (MDA-MB-231 [22]): Active
- Activity (MDA-MB-231 [23]): Active
- IC50 (MDA-MB-231 [24]): 8.81 µM
- Activity (MDA-MB-231 [25]): 7.3%
- Activity (MDA-MB-231 [26]): Active
- Activity (MDA-MB-231 [27]): Active
